Patent US10792377B2, “Compounds and method for imaging cancer” (Vanderbilt University, priority 2017, dated 2020)
Where two headings read alike, the source gives them in different places.

How the values were obtained:
[1] = tested on: COX-2 expressing 1483 tumors; experiment: In vivo imaging of nude mice with 1483 xenografts; conditions: 1 mg/kg intraperitoneal, nude mice 1483 xenografts
Experimental: The specificity of probe 1 was also evaluated by targeting COX-2 in human tumor xenografts. Nude mice bearing 1483 xenograft tumors on the left flank were dosed by intraperitoneal injection with 1 mg/kg fluorocoxib A or compound 1 (FIG. 25). […] However, signal was detected in the COX-2 expressing 1483 tumors of mice dosed with compound 1 starting at 24 h. Maximum fluorescence is detectable in the tumor at 48 h post-injection of probe 1 (FIGS. 27A-C).
Establishment of xenograft tumors in nude mice. Human 1483 HNSCC cells and HCT116 colorectal carcinoma cells were used to grow tumor xenografts in nude mice using a previously described method. Female nude mice, NU-Foxlnu, were purchased at 6-7 weeks of age from Charles River Labs. Human 1483 HNSCC cells were trypsinized and resuspended in cold PBS containing 30% Matrigel such that 1×10^6 cells in 100 μl were injected subcutaneously on the left flank and grew for 2-3 weeks.
In vivo imaging of nude mice with xenografts. Fluorescence imaging of tumors by test compounds was performed by a previously described method. Female nude mice bearing medium-sized 1483 xenograft tumors on the left flank were dosed by intraperitoneal injection with 1 mg/kg compound 1. The animals were lightly anesthetized with 2% isoflurane for fluorescence imaging in the Xenogen IVIS 200 with the DSRed filter at 1.5 cm depth and 1 sec exposure (f2).

[2] = molecular target: T1, murine COX-2 (Mus musculus, UniProt Q05769); experiment: In vitro purified COX-2 inhibition assay (TLC, 14C-arachidonic acid); format: biochemical; conditions: for COX-2 Selectivity Index (COX-1 IC50/COX-2 IC50): in vitro, purified enzymes
T1 sequence (Q05769 18-604): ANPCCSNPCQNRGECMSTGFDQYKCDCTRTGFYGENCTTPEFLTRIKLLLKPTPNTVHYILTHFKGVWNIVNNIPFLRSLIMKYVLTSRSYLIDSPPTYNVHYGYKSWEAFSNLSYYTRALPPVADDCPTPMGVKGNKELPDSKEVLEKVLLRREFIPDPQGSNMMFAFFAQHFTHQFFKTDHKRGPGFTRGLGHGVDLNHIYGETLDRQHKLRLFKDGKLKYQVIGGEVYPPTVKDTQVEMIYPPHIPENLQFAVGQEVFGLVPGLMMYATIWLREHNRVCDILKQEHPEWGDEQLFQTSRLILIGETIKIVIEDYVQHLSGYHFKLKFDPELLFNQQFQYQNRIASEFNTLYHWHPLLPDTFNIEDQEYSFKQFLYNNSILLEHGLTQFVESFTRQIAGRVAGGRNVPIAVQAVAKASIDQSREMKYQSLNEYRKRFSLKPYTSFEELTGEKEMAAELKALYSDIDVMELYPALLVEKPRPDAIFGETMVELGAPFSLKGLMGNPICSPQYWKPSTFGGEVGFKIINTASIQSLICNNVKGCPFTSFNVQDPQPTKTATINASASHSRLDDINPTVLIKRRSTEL
Experimental: The in vitro cyclooxygenase (ovine COX-1 or human COX-2) inhibitory activities of these probes were tested by a previously described TLC assay (FIGS. 19-21). Briefly, reaction mixtures of 200 μL consisted of hematin-reconstituted protein in 100 mM Tris-HCl, pH 8.0, 500 μM phenol, and [1-^14C]arachidonic acid (50 μM, about 55-57 mCi/mmol, Perkin Elmer).
Inhibition Assay Using Purified COX-1 and COX-2. Inhibition of purified ovine COX-1 or mouse COX-2 by test compounds was assayed by a previously described method, which quantifies the conversion of [1-^14C]arachidonic acid to [1-^14C]prostaglandin products. Reaction mixtures of 200 ∝L consisted of hematin-reconstituted protein in 100 mM Tris-HCl, pH 8.0, 500 μM phenol, and [1-^14C]arachidonic acid (50 μM, ˜55-57 mCi/mmol, Perkin Elmer). For the time-dependent inhibition assay, hematin-reconstituted COX-1 ([…]) was preincubated at 25° C. for 17 min and 37° C. for 3 min with varying inhibitor concentrations in dimethylsulfoxide followed by the addition of [1-^14C]arachidonic acid (50 μM) for 30 s at 37° C. Reactions were terminated by solvent extraction in diethyl ether:methanol:1 M citrate buffer, pH 4.0 (30:4:1). The phases were separated by centrifugation at 2000 g for 2 min, and the organic phase was spotted on a thin-layer chromatography plate (EMD Kieselgel 60, VWR). The plate was developed in ethyl acetate:methylene chloride:glacial AcOH (75:25:1) at 4° C. Radiolabeled products were quantified with a radioactivity scanner (Bioscan, Inc., Washington, D.C.).

[3] = molecular target: T2, hCOX-2 in 1483 cells (Homo sapiens, UniProt P35354); experiment: Intact cell COX-2 inhibition assay in 1483 HNSCC cells; format: cell-based
T2 construct: cells that express high levels of COX-2 were selected; endogenous in cells; host or cells: 1483 human head and neck squamous cell carcinoma (HNSCC) cells
T2 sequence (P35354 18-604): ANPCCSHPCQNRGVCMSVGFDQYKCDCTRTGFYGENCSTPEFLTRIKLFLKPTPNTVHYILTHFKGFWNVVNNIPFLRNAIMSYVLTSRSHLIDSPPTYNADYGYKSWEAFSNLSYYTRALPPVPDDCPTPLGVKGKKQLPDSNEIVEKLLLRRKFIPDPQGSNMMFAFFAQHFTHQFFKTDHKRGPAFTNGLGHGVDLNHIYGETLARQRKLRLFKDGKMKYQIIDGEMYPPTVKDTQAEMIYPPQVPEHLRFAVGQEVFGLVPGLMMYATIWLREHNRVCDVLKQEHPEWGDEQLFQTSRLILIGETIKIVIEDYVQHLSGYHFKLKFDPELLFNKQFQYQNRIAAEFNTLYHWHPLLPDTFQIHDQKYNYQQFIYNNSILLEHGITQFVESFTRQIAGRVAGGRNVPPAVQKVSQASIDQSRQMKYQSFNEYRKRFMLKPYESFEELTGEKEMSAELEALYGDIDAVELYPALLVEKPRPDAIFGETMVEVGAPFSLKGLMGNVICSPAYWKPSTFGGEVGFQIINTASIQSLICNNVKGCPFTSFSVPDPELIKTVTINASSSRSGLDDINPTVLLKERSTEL
Experimental: Following the promising results from the purified enzyme assay, the ability of compound 1 to inhibit COX-2 in intact cells was examined using a previously reported method. 1483 human head and neck squamous cell carcinoma (1483 HNSCC) cells that express high levels of COX-2 were selected. […]
Cell Culture and In Vitro Intact Cell Metabolism Assay. Inhibition of COX-2 in intact cells by test compounds was assayed by a previously described method. Human 1483 head and neck squamous cell carcinoma (HNSCC) cells (passage 8-18, mycoplasma negative by a polymerase chain reaction detection method) were cultured in DMEM/F12+10% fetal bovine serum+Antibiotic/Antimycotic in 6-well plates to 60% confluence. […] Reactions were terminated and analyzed by thin layer chromatography as described above.

Row | SMILES | time post-injection at which tumor signal starts to be detected [1] | time post-injection of maximum tumor fluorescence [1] | IC50 ([2]; COX-2 IC50, in vitro purified cox assay) | COX-2 Selectivity Index (COX-1 IC50/COX-2 IC50) [2] | IC50 ([2]; mCOX-2 IC50, purified murine COX-2 (63 nM), inhibitor 20 min, then 1-14C-AA (50 μM) 37° C. 30 s, duplicates) | IC50 ([3]; COX-2 IC50 in intact cells, 1483 HNSCC cells, compound 30 min 37° C., then [1-14C]-arachidonic acid 10 μM 20 min) | IC50 ([3]; hCOX-2 IC50, 1483 cells, 8 μM 14C-AA, 30 min at 37° C.) | fluorescence in the tumor ([1]; 3 h post-injection) | IC50 ([3]; high throughput screening, intact cancer cells, read-out: COX-2 positive 1483 HNSCC cells IC50)
1 | COc1ccc2c(c1)c(CC(=O)NCCCCNC(=O)c1ccc(C3=c4cc5c6c(c4Oc4c3cc3c7c4CCCN7CCC3)CCC[N+]=6CCC5)c(C(=O)NC3CC(C)(C)N([O])C(C)(C)C3)c1)c(C)n2C(=O)c1ccc(Cl)cc1 [Compound 1] | 24 h | 48 h | 303 nM | >83 | 300 nM | 280 nM | 285 nM | – | –
2 | COc1ccc2c(c1)c(CC(=O)NCCCCNC(=O)c1ccc(C3=c4cc5c6c(c4Oc4c3cc3c7c4CCCN7CCC3)CCC[N+]=6CCC5)c(C(=O)[O-])c1)c(C)n2C(=O)c1ccc(Cl)cc1 [Fluorocoxib A, reference compound] | – | – | – | >35 | – | – | – | fluorescence was observed in the tumor | 300 nM
